According to patent publication US20230129258A1, “HETEROTANDEM BICYCLIC PEPTIDE COMPLEXES” (BicycleTx Limited, priority 2019, published 2023):
Starred links: 1 amine or outer side, 2 acyl side, 3 side chain; linkers in the order of their positions; H or OH if unused. Positions of bridges follow the written chain, without caps; N, C: chain ends. Non-standard residues stand in square brackets, D forms with d. Primed or numbered codes have the meaning given here. Chains are numbered I, II in the order given. No end group written: not given here. *: point of attachment. X4 = O=C(CCOCCOCCOCCOCCOCCn1cc(CCC(=O)[*:2])nn1)NCCCN(CCCNC(=O)CCOCCOCCOCCOCCOCCn1cc(CCC(=O)[*:3])nn1)CC(=O)[*:1]; X1 = O=C(CCOCCOCCOCCN(CCOCCOCCOCCn1cc(CCC(=O)[*:2])nn1)CCOCCOCCOCCn1cc(CCC(=O)[*:3])nn1)[*:1]; PYA″ = 4-pentynoic acid, acylating the D-Lys side chain, alkyne clicked to the linker azide; TATA = O=C(CC[*:1])N1CN(C(=O)CC[*:2])CN(C(=O)CC[*:3])C1; γGlu = O=C(O)[C@H](CCC(=O)[*:2])N[*:1]; d1Nal = N[C@H](Cc1cccc2ccccc12)C(=O)O; Palmitoyl = CCCCCCCCCCCCCCCC(=O)*; Hyp = O=C(O)[C@@H]1C[C@@H](O)CN1; hArg = N=C(N)NCCCC[C@H](N)C(=O)O; tBuAla = CC(C)(C)C[C@H](N)C(=O)O; Aad = N[C@@H](CCCC(=O)O)C(=O)O; Cysteamide = C(CS[*:3])N[*:1]; Cba = N[C@@H](CC1CCC1)C(=O)O; dK(PYA) = not defined here; Nle = CCCC[C@H](N)C(=O)O; Pent4ynoyl = C#CCCC(=O)*; Mpa = O=C(O)CCS

Molecular target: CD137 (Homo sapiens, UniProt Q07011)
Assay: CD137 reporter assay (Promega, Jurkat cells) in co-culture with EphA2-expressing tumor cells (A549, PC3, HT29)
Assay type: cell-based
Parameters: host or cells: Jurkat reporter cells
Conditions: for Emax (fold induction over background) / fold induction: CD137 reporter coculture assay with PC3 tumor cells; for EC50: EC50, CD137 reporter coculture assay with PC3 tumor cells; for fold induction: read-out: Emax (fold induction over background); for Fold Improvement over BCY9173, EC50 (nM) / Fold Improvement over Emax: co-culture with PC3; for Fold Improvement over Emax: versus BCY9173
Experimental: Culture medium, referred to as R1 media, is prepared by adding 1% FBS to RPMI-1640 (component of Promega kit CS196005). Serial dilutions of test articles in R1 are prepared in a sterile 96 well-plate. Add 25 μL per well of test articles or R1 (as a background control) to designated wells in a white cell culture plate. Tumor cells* are harvested and resuspended at a concentration of 400,000 cells/mL in R1 media. Twenty five (25) μL/well of tumor cells are added to the white cell culture plate. Jurkat cells (Promega kit CS196005, 0.5 mL) are thawed in the water bath and then added to 5 ml pre-warmed R1 media. Twenty five (25) μL/well of Jurkat cells are then added to the white cell culture plate. Incubate the cells and test articles for 6 h at 37° C., 5% CO2. At the end of 6 h, add 75 μL/well Bio-Glo™ reagent (Promega) and incubate for 10 min before reading luminescence in a plate reader (Clariostar, BMG). The fold change relative to cells alone (Jurkat cells+Cell line used in co-culture) is calculated and plotted in GraphPad Prism as log(agonist) vs response to determine EC50 (nM) and Fold Induction over background (Max).
The tumor cell types used in co-culture for EphA2 are A549, PC3 and HT29. The tumor cell type used in co-culture for PD-L1 is RKO.

Sequence of CD137 (Q07011 24-255): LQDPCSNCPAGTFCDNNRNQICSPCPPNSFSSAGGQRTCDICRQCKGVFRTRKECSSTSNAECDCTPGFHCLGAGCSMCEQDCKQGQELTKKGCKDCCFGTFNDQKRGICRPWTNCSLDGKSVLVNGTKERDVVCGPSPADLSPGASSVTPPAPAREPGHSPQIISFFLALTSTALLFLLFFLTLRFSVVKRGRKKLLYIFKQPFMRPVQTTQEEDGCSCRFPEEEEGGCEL

Fold Improvement over BCY9173, EC50 (nM) [fold] | Fold Improvement over Emax [fold] | Substance | Emax (fold induction over background) | EC50 [nM] | fold induction
– | – | I: A[hArg]DC[Hyp]LVNPLC[Aad]HP[dD]W[hArg]C-NH2 / II: Ac-C[tBuAla]PE[dK]PYCFADPY[Nle]CA-NH2 / III: Ac-C[tBuAla]PE[dK]PYCFADPY[Nle]CA-NH2 (linker I:4-I:11-I:18, II:1-II:8-II:15, III:1-III:8-III:15 via TATA; linker I:N-II:5-III:5 via X1) [BCY13285] | 36.53 | 0.26 | –
– | – | I: A[hArg]DC[Hyp]LVNPLCLHP[dE]W[hArg]C-NH2 / II: Ac-C[tBuAla]PE[dK]PYCFADPY[Nle]CA-NH2 / III: Ac-C[tBuAla]PE[dK]PYCFADPY[Nle]CA-NH2 (linker I:4-I:11-I:18, II:1-II:8-II:15, III:1-III:8-III:15 via TATA; linker I:N-II:5-III:5 via X1) [BCY12977] | – | 0.08 | 67.2
4.74 | 2.08 | BCY13279: EphA2:CD137 1:2; BCY13125 (C-term dLys) + 2x BCY8928; linker N-(acid-PEG3)-N-bis(PEG3-azide) (peptide 1 Ac-C[Hyp]LVNPLCLHP[dD]W[hArg]CL[dH]G[dK]; peptide 2 Ac-C[tBuAla]PE[dK](Pent4ynoyl)PYCFADPY[Nle]CA; linker I:1-I:8-I:15 via TATA; linker II:1-II:8-II:15 via TATA (inferred); not fully specified (bridges); also: linker N-(acid-PEG3)-N-bis(PEG3-azide) on C-terminal dK of chain 1, joins two chain 2 copies (2x BCY8928) via PYA triazoles) | – | – | –
– | – | I: [d1Nal][hArg]DC[Hyp][Cba]VNPLCLEP[dA]WTC[dA]-NH2 / II: Ac-C[tBuAla]PE[dK]PYCFADPY[Nle]CA-NH2 / III: Ac-C[tBuAla]PE[dK]PYCFADPY[Nle]CA-NH2 (linker I:4-I:11-I:18, II:1-II:8-II:15, III:1-III:8-III:15 via TATA; linker I:N-II:5-III:5 via X1) [BCY13278] | – | 0.14 | 37.9
7.14 | 0.94 | BCY14335: EphA2:CD137 1:2; BCY14327 (Lys 8) + 2x BCY8928; linker N-(acid-PEG3)-N-bis(PEG3-azide) (peptide 1 {Palmitoyl‑Glu‑LysN3-Pent4ynoyl}-A[hArg]DC[Hyp]LVNPLCLKP[dD]W[hArg]C; peptide 2 Ac-C[tBuAla]PE[dK](Pent4ynoyl)PYCFADPY[Nle]CA; linker I:4-I:11-I:18, II:1-II:8-II:15 via TATA (inferred); not fully specified (some residues); also: 1:2 complex: linker bis(PEG3-azide) clicked to dLys(PYA)4 of two BCY8928 copies, one copy shown) | – | – | –
– | – | I: Ac-A[hArg]DC[Hyp]KVNPLCLHP[dD]W[hArg]C-NH2 / II: Ac-C[tBuAla]PE[dK]PYCFADPY[Nle]CA-NH2 / III: Ac-C[tBuAla]PE[dK]PYCFADPY[Nle]CA-NH2 (linker I:4-I:11-I:18, II:1-II:8-II:15, III:1-III:8-III:15 via TATA; linker I:6-II:5-III:5 via X1) [BCY12975] | – | 0.16 | 68.8
0.5 | 0.4 | BCY12732: EphA2:CD137 1:2; BCY9594 + 2x BCY12360; linker N-(acid-PEG3)-N-bis(PEG3-azide) (peptide 1 A[hArg]DC[Hyp]LVNPLCLHP[dD]W[hArg]C; peptide 2 {Palmitoyl-γGlu-γGlu}-C[tBuAla]PE[dK(PYA)]PYCFADPY[Nle]C; linker I:4-I:11-I:18 via TATA (inferred); linker II:1-II:8-II:15 via TATA; not fully specified (N-terminus); reading uncertain; also: chain 2 twice (1:2 complex), linker at chain B 5 to a chain's N-terminus via N-(acid-PEG3)-N-bis(PEG3-azide)) | – | – | –
4.16 | 1.89 | BCY14052: EphA2:CD137 1:2; BCY13920 + 2x BCY8928; linker N-(acid-PEG3)-N-bis(PEG3-azide) (peptide 1 A[hArg]DC[Hyp]LVNPLCLFP[dD]W[hArg]C; peptide 2 Ac-C[tBuAla]PE[dK](PYA″)PYCFADPY[Nle]CA; linker I:4-I:11-I:18 via TATA; linker II:1-II:8-II:15 via TATA (inferred); not fully specified (N-terminus, bridges); also: 2x chain 2 (2x BCY8928) on linker) | – | – | –
– | – | I: Ac-A[hArg]DC[Hyp]LVNPLCKHP[dD]W[hArg]C-NH2 / II: Ac-C[tBuAla]PE[dK]PYCFADPY[Nle]CA-NH2 / III: Ac-C[tBuAla]PE[dK]PYCFADPY[Nle]CA-NH2 (linker I:4-I:11-I:18, II:1-II:8-II:15, III:1-III:8-III:15 via TATA; linker I:12-II:5-III:5 via X1) [BCY12976] | – | 0.18 | 73.2
– | – | I: [dA][hArg]DC[Hyp][Cba]VNPLCLEP[dA]WTC[dA]-NH2 / II: Ac-C[tBuAla]PE[dK]PYCFADPY[Nle]CA-NH2 / III: Ac-C[tBuAla]PE[dK]PYCFADPY[Nle]CA-NH2 (linker I:4-I:11-I:18, II:1-II:8-II:15, III:1-III:8-III:15 via TATA; linker I:N-II:5-III:5 via X1) [BCY13277] | – | 0.08 | 51.1
– | – | I: A[hArg]DC[Hyp]LVNPLCLHP[d1Nal]W[hArg]C-NH2 / II: Ac-C[tBuAla]PE[dK]PYCFADPY[Nle]CA-NH2 / III: Ac-C[tBuAla]PE[dK]PYCFADPY[Nle]CA-NH2 (linker I:4-I:11-I:18, II:1-II:8-II:15, III:1-III:8-III:15 via TATA; linker I:N-II:5-III:5 via X1) [BCY13270] | – | 0.1 | 42.5
– | – | I: A[hArg]DC[Hyp]LVNPLCLHP[dD]W[hArg]C-NH2 / II: Ac-C[tBuAla]PE[dK]PYCFADPY[Nle]CA-NH2 / III: Ac-C[tBuAla]PE[dK]PYCFADPY[Nle]CA-NH2 (linker I:4-I:11-I:18, II:1-II:8-II:15, III:1-III:8-III:15 via TATA; linker I:N-II:5-III:5 via X4) [BCY12979] | 71.60 | 0.08 | –
0.2 | 1.5 | BCY12731: EphA2:CD137 1:2; BCY9594 + 2x BCY12354; linker N-(acid-PEG3)-N-bis(PEG3-azide) (peptide 1 A[hArg]DC[Hyp]LVNPLCLHP[dD]W[hArg]C; peptide 2 [Mpa][tBuAla]PE[dK(PYA)]PYCFADPY[Nle][Cysteamide]; linker I:4-I:11-I:18 via TATA (inferred); linker II:1-II:8-II:15 via TATA; not fully specified (N-terminus); reading uncertain; also: chain 2 twice (1:2 complex), linker at chain B 5 to a chain's N-terminus via N-(acid-PEG3)-N-bis(PEG3-azide)) | – | – | –
– | – | I: A[hArg]DC[Hyp]LVNPLCLHP[dD]WTC-NH2 / II: Ac-C[tBuAla]PE[dK]PYCFADPY[Nle]CA-NH2 / III: Ac-C[tBuAla]PE[dK]PYCFADPY[Nle]CA-NH2 (linker I:4-I:11-I:18, II:1-II:8-II:15, III:1-III:8-III:15 via TATA; linker I:N-II:5-III:5 via X1) [BCY13043] | – | 0.11 | 52.7
